Test results: article PMC10095193, “Myokine Musclin Is Critical for Exercise-Induced Cardiac Conditioning” (International Journal of Molecular Sciences, 2023)
Residues, ends and D or L forms follow the SMILES beside them.

Test: Synthetic musclin peptide plasma elimination half-life and volume of distribution (NMR of plasma after jugular vein injection)
Assay type: in vivo, mouse
Experimental: The musclin [^13C,^15N-A26-V27]-labeled peptide sequence used was as follows: […], corresponding to amino acids 80–112; GenBank accession no. AAS87598.1 (Bio-synthesis, Inc. Lewisville, TX, USA). A peptide was synthesized with 98% purity, counter-ion exchange (TFA to Cl), and pH adjustment (Bio-synthesis, Inc. Lewisville, TX, USA).
For infusion, 1.7 mg of the chemically synthesized [^13C,^15N-A26-V27]-labeled musclin peptide was dissolved in 300 µL of PBS. This musclin solution was injected into the jugular vein. A 100 µL blood sample was then drawn from the carotid artery at 1, 3, 5, 7, 10, and 15 min after the peptide infusion. Blood was mixed with 5 µL of 10% NaEDTA and 1 µL of peptidase inhibitor cocktail (Sigma, St. Louis, MI, USA) and kept on ice, then centrifuged at 4 °C for 45 min at 14,000 rpm. Plasma was removed and stored at −80 °C for NMR studies.
All NMR spectra were acquired at 5 °C on a Bruker Avance II 800 MHz NMR spectrometer equipped with a TCI cryoprobe. 100 µL of plasma (see above) was added 150 µL NMR buffer containing 50 mM sodium phosphate, pH 7.1 with a final volume of 250 µL in 8.5% D2O/91.5% H2O. This sample was then transferred to a Shigemi NMR tube for NMR studies. One-dimensional (1D) ^1H, two-dimensional (2D) ^15N/^1H-heteronuclear single-quantum correlation (HSQC), 2D ^13C/^1H-HSQC with constant time experiment (HSQC-CT), and 2D ^15N/^1H-slice of the three-dimensional (3D) HNCO experiment were acquired for each blood sample drawn at different times after peptide infusion. The collected NMR data were processed using NMRPipe and analyzed using NMRView. The musclin peptide concentration present in these blood samples was calibrated by using a known amount of chemically synthesized [^13C,^15N-A26-V27]-labeled musclin peptide. The peak intensity of these acquired NMR spectra was measured and fitted to the equation for half-life in exponential decay using GraphPad Prism (GraphPad Software version 9.4.1).

Cl, clearance = Ke × Vd (calculated for a mouse of 27 g): 1.71 mL/min
C0 (in vivo, iv, mouse, 1.7 mg i.v. (jugular vein), NMR calibrated with known amount of labeled peptide, read-out: initial plasma concentration): 36 µM
half-life (in vivo, iv, mouse, 1.7 mg in 300 µL PBS injected into jugular vein, carotid artery blood at 1, 3, 5, 7, 10, 15 min, plasma NMR at 5 °C, HNCO (2D) peak intensities fitted to exponential decay, read-out: plasma elimination half-life (t ½)): 4.6 min
volume of distribution (Vd) per g body weight (mouse of 31 g, Vd = administered dose/initial concentration, 1.7 mg i.v. (jugular vein)): 0.419 ml/g of BW
Ke, elimination rate = 0.693/T1/2 (mouse, i.v. (jugular vein)): 0.151 min⁻¹
Vd (mouse, in vivo, iv, for mice of 31 g, 1.7 mg/0.131 mg/mL): 0.013 L
Structure (SMILES): CC(C)C[C@H](NC(=O)[C@H](CCCNC(=N)N)NC(=O)[C@H](CC(=O)O)NC(=O)[C@H](CC(C)C)NC(=O)[C@@H]1CCCN1C(=O)[C@H](CO)NC(=O)CNC(=O)[C@H](Cc1ccccc1)NC(=O)CNC(=O)[C@H](CO)NC(=O)[C@H](Cc1ccccc1)NC(=O)[C@@H](N)CO)C(=O)N[C@@H](CO)C(=O)N[C@@H](C)C(=O)NCC(=O)N[C@@H](CO)C(=O)N[C@H](C(=O)N[C@@H](CCC(=O)O)C(=O)N[C@@H](Cc1c[nH]cn1)C(=O)N[C@@H](CCCNC(=N)N)C(=O)NCC(=O)N[C@@H](CCCCN)C(=O)N[C@@H](CCC(N)=O)C(=O)N[C@@H](CCCNC(=N)N)C(=O)N[C@@H](CCCCN)C(=O)N[C@@H](C)C(=O)N[C@H](C(=O)N[C@@H](CC(=O)O)C(=O)N[C@@H](Cc1c[nH]cn1)C(=O)N[C@@H](CO)C(=O)N[C@@H](CCCCN)C(=O)N[C@@H](CCCCN)C(=O)N[C@@H](CCCNC(=N)N)C(=O)O)C(C)C)C(C)C (H-SFSGFGSPLDRLSAGSVEHRGKQRKAVDHSKKR-OH; N-terminus and C-terminus assumed)
